Target: SSTR2 mutants (Homo sapiens, UniProt P30874, R140A)
Assay: Bystander BRET endosomal trafficking (β-arrestin 1-Nluc, FYVE-mVenus), HEK293 (SSTR2 mutants);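 also: Read-out is the BRET ratio between Nluc-fused β-arrestin 1 and the early endosome marker FYVE-mVenus, measured after ligand addition with coelenterazine h as substrate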
Conditions: for Bottom: Best-fit values
Protocol: Wild-type or mutant SSTR2, β-arrestin 1-Nluc and FYVE-mVenus were co-transfected in HEK293 cells at a ratio of 1:0.5:4 on six-well plates. The next day, the transfected cells were plated on white 96-well and incubated overnight, and then cells were incubated with 90 µL HBSS containing 20 mM HEPES and coelenterazine h (5 µM) at room temperature for 40 min. After incubation, ligand was added and the signal was measured using the Synergy H1 microplate reader (BioTek) to determine a BRET ratio.

Sequence of SSTR2 mutants (P30874 whole entry R140A, the tested form may be a part): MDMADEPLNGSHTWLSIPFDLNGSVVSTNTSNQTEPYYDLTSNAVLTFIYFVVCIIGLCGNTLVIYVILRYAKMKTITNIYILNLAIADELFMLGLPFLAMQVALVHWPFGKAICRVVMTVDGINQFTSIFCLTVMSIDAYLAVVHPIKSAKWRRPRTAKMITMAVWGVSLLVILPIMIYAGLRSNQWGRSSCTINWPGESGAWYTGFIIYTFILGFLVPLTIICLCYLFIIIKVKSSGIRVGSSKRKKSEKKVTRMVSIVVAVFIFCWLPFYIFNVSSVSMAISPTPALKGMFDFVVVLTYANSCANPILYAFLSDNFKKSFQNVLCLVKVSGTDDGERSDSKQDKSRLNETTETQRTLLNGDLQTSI

| Compound | Bottom (R140A-1) | Bottom (R140A-2) | Bottom (best-fit) (R140A-1 (run 1)) | Bottom (best-fit) (R140A-2 (run 2)) | Bottom (best-fit) (R140A-3 (run 3)) |
| --- | --- | --- | --- | --- | --- |
| C[C@@H](O)[C@@H]1NC(=O)[C@H](CCCCN)NC(=O)[C@@H](Cc2c[nH]c3ccccc23)NC(=O)[C@H](Cc2ccccc2)NC(=O)[C@@H](NC(=O)[C@H](N)Cc2ccccc2)CSSC[C@@H](C(=O)N[C@H](CO)[C@@H](C)O)NC1=O [octreotide] | 0.00472 | -1.087 | – | – | – |
| N#Cc1cccc(-c2ccc3ncc(-c4cc(F)cc(F)c4)c(N4CCC(N)CC4)c3c2)c1O [paltusotine] | – | – | -0.6263 | -11.29 | 0.1772 |

Reference: PMC9944328 (Nature Communications, 2023)
